According to paper PMC6540285, “Evaluation of Protein Kinase Inhibitors with PLK4 Cross-Over Potential in a Pre-Clinical Model of Cancer” (International Journal of Molecular Sciences, 2019):

How the values were obtained:
PRKCE (PKC epsilon) = PRKCE (PKC epsilon) (Homo sapiens, UniProt Q02156); experiment: SelectScreen kinase profiling, ZLYTE; type: biochemical
STK17B (DRAK2) = STK17B (DRAK2) (Homo sapiens, UniProt O94768); experiment: SelectScreen kinase profiling, LanthaScreen binding
PRKCA (PKC alpha) = PRKCA (PKC alpha) (Homo sapiens, UniProt P17252); experiment: SelectScreen kinase profiling, ZLYTE; type: biochemical
AMPK (A2/B1/G3) = AMPK (A2/B1/G3) (Homo sapiens, UniProt P54646); experiment: SelectScreen kinase profiling, ZLYTE; type: biochemical
PLK3 = PLK3 (Homo sapiens, UniProt Q9H4B4); experiment: SelectScreen kinase profiling, ZLYTE; type: biochemical; details: PLK3, 10 µM
ADRBK2 (GRK3) = ADRBK2 (GRK3) (Homo sapiens, UniProt P35626); experiment: SelectScreen kinase profiling, ZLYTE; type: biochemical
ZAP70 = ZAP70 (Homo sapiens, UniProt P43403); experiment: SelectScreen kinase profiling, ZLYTE; type: biochemical; details: ZAP70, 10 µM
Text: Kinase Technology % Inhibition Avg Kinase Technology % Inhibition Avg […]
TESK1 LanthaScreen 37 ZAP70 ZLYTE 24
cleavage (Thermo Fisher Scientific, USA)

MATK (HYL) = MATK (HYL) (Homo sapiens, UniProt P42679); experiment: SelectScreen kinase profiling, ZLYTE; type: biochemical
CHEK1 (CHK1) = CHEK1 (CHK1) (Homo sapiens, UniProt O14757); experiment: SelectScreen kinase profiling, ZLYTE; type: biochemical
NEK9 = NEK9 (Homo sapiens, UniProt Q8TD19); experiment: SelectScreen kinase profiling, ZLYTE; type: biochemical; details: NEK9, 10 µM
MYLK4 = MYLK4 (Homo sapiens, UniProt Q86YV6); experiment: SelectScreen kinase profiling, LanthaScreen binding; details: MYLK4, 10 µM
KIT = KIT (Homo sapiens, UniProt P10721); experiment: SelectScreen kinase profiling, ZLYTE; type: biochemical
KIT, sequence (P10721 26-976): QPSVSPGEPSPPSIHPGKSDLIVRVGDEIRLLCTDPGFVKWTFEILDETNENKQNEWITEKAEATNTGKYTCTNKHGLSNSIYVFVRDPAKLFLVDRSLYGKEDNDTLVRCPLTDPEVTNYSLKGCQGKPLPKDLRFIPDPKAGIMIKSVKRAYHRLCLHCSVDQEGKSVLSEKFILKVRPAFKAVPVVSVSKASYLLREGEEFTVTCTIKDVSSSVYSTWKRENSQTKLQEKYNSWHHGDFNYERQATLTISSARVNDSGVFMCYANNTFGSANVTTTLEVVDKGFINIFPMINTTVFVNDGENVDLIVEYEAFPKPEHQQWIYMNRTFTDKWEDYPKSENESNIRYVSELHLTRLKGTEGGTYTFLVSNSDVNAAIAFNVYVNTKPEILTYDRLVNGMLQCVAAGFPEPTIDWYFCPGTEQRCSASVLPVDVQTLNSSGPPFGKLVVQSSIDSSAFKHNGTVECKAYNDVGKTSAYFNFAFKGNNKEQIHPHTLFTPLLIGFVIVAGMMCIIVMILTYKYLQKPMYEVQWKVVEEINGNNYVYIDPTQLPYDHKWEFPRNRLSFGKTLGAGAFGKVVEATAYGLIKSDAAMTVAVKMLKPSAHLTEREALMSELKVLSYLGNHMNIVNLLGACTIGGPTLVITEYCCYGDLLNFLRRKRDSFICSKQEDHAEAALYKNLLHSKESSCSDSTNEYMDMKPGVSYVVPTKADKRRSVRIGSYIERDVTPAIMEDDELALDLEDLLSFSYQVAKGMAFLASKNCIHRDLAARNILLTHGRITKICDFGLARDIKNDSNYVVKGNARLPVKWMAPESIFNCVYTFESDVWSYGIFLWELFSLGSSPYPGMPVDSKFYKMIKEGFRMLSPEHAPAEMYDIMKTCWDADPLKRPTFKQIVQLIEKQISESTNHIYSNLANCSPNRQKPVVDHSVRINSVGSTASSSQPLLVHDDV

MAPK9 (JNK2) = MAPK9 (JNK2) (Homo sapiens, UniProt P45984); experiment: SelectScreen kinase profiling, LanthaScreen binding
MAPK9 (JNK2), sequence (P45984 whole entry): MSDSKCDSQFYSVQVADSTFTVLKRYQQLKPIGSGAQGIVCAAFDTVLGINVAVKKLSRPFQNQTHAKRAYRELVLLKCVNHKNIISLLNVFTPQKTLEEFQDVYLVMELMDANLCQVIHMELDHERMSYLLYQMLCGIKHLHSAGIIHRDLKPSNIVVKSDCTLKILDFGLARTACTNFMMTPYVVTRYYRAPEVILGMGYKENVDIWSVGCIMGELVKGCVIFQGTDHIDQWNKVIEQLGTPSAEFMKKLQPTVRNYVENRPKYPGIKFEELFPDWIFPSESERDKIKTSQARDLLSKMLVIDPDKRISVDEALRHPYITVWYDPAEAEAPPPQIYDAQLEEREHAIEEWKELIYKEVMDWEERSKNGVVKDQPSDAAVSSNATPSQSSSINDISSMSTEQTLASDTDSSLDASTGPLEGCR

[1] = target: MAP2K6 (MKK6) S207E T211E (Homo sapiens, UniProt P52564, S207E/T211E); experiment: as above
BT-16 cells = type: cell-based; details: BT-16, read-out: MTT: IC50 of the proliferation assay
MAP2K5 (MEK5) = MAP2K5 (MEK5) (Homo sapiens, UniProt Q13163); experiment: SelectScreen kinase profiling, LanthaScreen binding
CAMKK1 (CAMKKA) = CAMKK1 (CAMKKA) (Homo sapiens, UniProt Q8N5S9); experiment: as above
ABL1 G250E = ABL1 G250E (Homo sapiens, UniProt P00519, G250E); experiment: SelectScreen kinase profiling, ZLYTE; type: biochemical
ABL1 H396P = ABL1 H396P (Homo sapiens, UniProt P00519, H396P); experiment: SelectScreen kinase profiling, LanthaScreen binding
AMPK (A2/B2/G1) = AMPK (A2/B2/G1) (Homo sapiens, UniProt P54646); experiment: as above
MAP2K1 (MEK1) = MAP2K1 (MEK1) (Homo sapiens, UniProt Q02750); experiment: SelectScreen kinase profiling, ZLYTE; type: biochemical
LYN A = LYN A (Homo sapiens, UniProt P07948); experiment: SelectScreen kinase profiling, ZLYTE; type: biochemical
BLK = BLK (Homo sapiens, UniProt P51451); experiment: SelectScreen kinase profiling, ZLYTE; type: biochemical
BLK, sequence (P51451 whole entry): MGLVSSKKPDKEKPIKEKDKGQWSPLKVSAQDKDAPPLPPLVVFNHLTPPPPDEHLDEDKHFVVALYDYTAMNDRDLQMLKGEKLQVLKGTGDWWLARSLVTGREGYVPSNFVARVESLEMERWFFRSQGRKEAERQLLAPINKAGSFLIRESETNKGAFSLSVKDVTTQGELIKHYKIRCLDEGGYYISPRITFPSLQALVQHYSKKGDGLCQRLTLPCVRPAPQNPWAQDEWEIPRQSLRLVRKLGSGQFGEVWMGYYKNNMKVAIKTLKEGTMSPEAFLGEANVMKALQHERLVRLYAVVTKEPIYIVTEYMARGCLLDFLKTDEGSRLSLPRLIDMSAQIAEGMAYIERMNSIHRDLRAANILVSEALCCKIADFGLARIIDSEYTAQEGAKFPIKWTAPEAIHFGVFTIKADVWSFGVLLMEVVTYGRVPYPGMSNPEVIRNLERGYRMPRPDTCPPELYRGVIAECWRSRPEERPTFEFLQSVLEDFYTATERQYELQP

ALK F1174L = ALK F1174L (Homo sapiens, UniProt Q9UM73, F1174L); experiment: SelectScreen kinase profiling, LanthaScreen binding
MAPK8 (JNK1) [2] = target: T1, MAPK8 (JNK1) (Homo sapiens, UniProt P45983); experiment: as above
T1 sequence (P45983 whole entry): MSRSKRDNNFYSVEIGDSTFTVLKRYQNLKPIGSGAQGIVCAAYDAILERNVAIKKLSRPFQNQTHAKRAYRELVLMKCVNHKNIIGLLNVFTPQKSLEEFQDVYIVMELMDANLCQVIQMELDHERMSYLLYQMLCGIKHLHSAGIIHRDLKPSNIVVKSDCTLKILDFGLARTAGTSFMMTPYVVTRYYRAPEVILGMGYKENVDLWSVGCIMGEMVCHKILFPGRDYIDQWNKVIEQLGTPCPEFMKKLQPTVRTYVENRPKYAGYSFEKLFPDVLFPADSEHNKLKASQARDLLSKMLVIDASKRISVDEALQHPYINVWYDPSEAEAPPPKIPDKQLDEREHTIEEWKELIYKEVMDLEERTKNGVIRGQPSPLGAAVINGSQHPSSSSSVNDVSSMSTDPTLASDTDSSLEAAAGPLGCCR

ABL1 M351T = ABL1 M351T (Homo sapiens, UniProt P00519, M351T); experiment: as above
FGFR3 = FGFR3 (Homo sapiens, UniProt P22607); experiment: SelectScreen kinase profiling, ZLYTE; type: biochemical; details: FGFR3, 10 µM
FGFR3, sequence (P22607 23-806): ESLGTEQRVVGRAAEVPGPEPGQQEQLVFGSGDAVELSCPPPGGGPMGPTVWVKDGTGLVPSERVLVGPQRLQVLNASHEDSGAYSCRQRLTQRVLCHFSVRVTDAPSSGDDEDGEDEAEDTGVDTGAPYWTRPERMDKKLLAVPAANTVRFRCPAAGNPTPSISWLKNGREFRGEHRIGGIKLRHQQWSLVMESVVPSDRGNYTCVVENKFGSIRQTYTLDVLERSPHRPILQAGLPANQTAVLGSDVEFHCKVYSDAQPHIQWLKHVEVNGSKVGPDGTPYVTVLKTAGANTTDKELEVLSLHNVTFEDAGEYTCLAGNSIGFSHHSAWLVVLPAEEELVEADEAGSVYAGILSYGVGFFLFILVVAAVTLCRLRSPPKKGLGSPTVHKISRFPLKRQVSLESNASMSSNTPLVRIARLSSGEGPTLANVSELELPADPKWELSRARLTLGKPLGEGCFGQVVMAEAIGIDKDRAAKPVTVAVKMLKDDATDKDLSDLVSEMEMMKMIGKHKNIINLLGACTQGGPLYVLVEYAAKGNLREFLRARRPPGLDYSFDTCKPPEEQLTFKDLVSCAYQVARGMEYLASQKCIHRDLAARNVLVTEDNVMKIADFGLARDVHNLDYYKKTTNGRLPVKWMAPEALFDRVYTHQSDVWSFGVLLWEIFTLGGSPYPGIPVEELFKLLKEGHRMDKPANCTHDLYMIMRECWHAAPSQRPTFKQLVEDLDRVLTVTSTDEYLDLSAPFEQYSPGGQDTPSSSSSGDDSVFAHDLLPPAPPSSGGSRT

LYN B = LYN B (Homo sapiens, UniProt P07948); experiment: SelectScreen kinase profiling, ZLYTE; type: biochemical
LYN B, sequence (P07948 1-491 isoform P07948-2): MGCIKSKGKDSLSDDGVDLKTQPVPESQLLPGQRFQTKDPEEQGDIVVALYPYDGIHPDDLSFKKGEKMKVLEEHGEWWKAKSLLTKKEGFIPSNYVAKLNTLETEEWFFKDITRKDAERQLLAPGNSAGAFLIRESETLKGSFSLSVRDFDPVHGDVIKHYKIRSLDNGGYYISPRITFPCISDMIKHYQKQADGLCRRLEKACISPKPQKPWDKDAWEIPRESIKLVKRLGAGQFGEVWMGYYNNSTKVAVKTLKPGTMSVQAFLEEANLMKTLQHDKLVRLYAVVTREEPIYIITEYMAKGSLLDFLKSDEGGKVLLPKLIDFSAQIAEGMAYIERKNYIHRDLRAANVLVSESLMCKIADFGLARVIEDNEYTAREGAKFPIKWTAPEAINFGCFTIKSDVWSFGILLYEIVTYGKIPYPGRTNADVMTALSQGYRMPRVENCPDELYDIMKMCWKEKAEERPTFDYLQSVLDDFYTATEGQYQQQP

LRRK2 G2019S FL = LRRK2 G2019S FL (Homo sapiens, UniProt Q5S007, G2019S); experiment: SelectScreen kinase profiling, Adapta; type: biochemical
MAPK8 (JNK1) [3] = target: T1, MAPK8 (JNK1); experiment: SelectScreen kinase profiling, ZLYTE; type: biochemical
CAMKK2 (CaMKK beta) = CAMKK2 (CaMKK beta) (Homo sapiens, UniProt Q96RR4); experiment: SelectScreen kinase profiling, LanthaScreen binding
CAMKK2 (CaMKK beta), sequence (Q96RR4 whole entry): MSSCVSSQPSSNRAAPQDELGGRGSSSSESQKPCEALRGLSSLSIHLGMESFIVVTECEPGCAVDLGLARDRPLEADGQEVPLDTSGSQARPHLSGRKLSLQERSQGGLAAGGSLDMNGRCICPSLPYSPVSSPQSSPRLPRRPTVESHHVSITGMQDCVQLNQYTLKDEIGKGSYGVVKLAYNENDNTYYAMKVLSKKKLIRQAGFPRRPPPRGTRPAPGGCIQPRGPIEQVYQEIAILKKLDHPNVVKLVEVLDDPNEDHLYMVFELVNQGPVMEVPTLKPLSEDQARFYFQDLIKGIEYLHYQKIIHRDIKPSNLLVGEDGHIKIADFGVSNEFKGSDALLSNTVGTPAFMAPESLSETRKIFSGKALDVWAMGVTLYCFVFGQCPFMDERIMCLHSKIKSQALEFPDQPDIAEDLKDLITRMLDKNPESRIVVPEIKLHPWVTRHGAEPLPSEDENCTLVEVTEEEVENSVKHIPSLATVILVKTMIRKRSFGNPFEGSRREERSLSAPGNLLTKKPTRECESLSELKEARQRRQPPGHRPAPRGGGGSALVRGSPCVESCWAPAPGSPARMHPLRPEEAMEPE

KIT V559D V654A = KIT V559D V654A (Homo sapiens, UniProt P10721, V559D/V654A); experiment: SelectScreen kinase profiling, ZLYTE; type: biochemical
KIT V559D V654A, sequence (P10721 26-976 V559D/V654A): as the sequence (P10721 26-976) above, with V534D, V629A counted along it

FGFR4 = FGFR4 (Homo sapiens, UniProt P22455); experiment: SelectScreen kinase profiling, ZLYTE; type: biochemical; details: FGFR4, 10 µM
[4] = target: PIK3CA/PIK3R3 (p110 alpha/p55 gamma) (Homo sapiens, UniProt P42336); experiment: SelectScreen kinase profiling, Adapta; type: biochemical; details: PIK3CA/PIK3R3, 10 µM
CYP2D6 = CYP2D6 (Homo sapiens, UniProt P10635); experiment: SelectScreen P450 Vivid biochemical assay; details: 10000nM; substrate EOMCC
CYP2D6, sequence (P10635 whole entry): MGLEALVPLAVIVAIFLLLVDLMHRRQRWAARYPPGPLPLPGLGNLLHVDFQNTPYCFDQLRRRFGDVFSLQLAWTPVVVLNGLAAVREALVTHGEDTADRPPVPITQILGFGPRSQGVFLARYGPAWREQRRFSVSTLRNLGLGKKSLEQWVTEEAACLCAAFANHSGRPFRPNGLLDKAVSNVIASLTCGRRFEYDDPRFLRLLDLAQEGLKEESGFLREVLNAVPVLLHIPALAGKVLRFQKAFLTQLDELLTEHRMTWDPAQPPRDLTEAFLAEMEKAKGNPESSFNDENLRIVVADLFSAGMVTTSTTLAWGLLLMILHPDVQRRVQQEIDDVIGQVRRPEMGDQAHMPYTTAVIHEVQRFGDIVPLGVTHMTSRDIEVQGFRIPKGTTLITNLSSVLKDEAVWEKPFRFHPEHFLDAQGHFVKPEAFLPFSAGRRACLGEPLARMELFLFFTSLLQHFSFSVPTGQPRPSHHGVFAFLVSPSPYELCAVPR

ALK T1151_L1152insT = ALK T1151_L1152insT (Homo sapiens, UniProt Q9UM73, INS1151T); experiment: SelectScreen kinase profiling, LanthaScreen binding
P450 2C8 = P450 2C8 (Homo sapiens, UniProt P10632); experiment: SelectScreen P450 Vivid biochemical assay; details: 10000nM; substrate DBOMF
PIK3C2B (PI3K-C2 beta) = PIK3C2B (PI3K-C2 beta) (Homo sapiens, UniProt O00750); experiment: SelectScreen kinase profiling, Adapta; type: biochemical

For O=C(c1ccc(/C=C/c2n[nH]c3ccccc23)cc1)N1CCNCC1 [KW-2449], the inhibition at 10 µM (PRKCE (PKC epsilon)) was 10%, the inhibition at 10 µM (STK17B (DRAK2)) was 58% and the inhibition at 10 µM (PRKCA (PKC alpha)) was 61%. It also gave an inhibition at 10 µM (AMPK (A2/B1/G3)) of 96%, an inhibition at 10 µM (PLK3) of -10% and an inhibition at 10 µM (ADRBK2 (GRK3)) of 31%. The inhibition at 10 µM (ZAP70) was 24%, the inhibition at 10 µM (MATK (HYL)) was 37% and the inhibition at 10 µM (CHEK1 (CHK1)) was 99%. For the same compound, the inhibition at 10 µM (NEK9) was 70%, the inhibition at 10 µM (MYLK4) was 71% and the inhibition at 10 µM (KIT) was 91%. For the same compound, the inhibition at 10 µM (MAPK9 (JNK2)) was 79%, the inhibition at 10 µM [1] was 82% and the IC50 (BT-16 cells) was greater than 10 µM. The inhibition at 10 µM (MAP2K5 (MEK5)) was 84%, the inhibition at 10 µM (CAMKK1 (CAMKKA)) was 69% and the inhibition at 10 µM (ABL1 G250E) was 100%. For the same compound, the inhibition at 10 µM (ABL1 H396P) was 78%, the inhibition at 10 µM (AMPK (A2/B2/G1)) was 75% and the inhibition at 10 µM (MAP2K1 (MEK1)) was 72%. For the same compound, the inhibition at 10 µM (LYN A) was 89%, the inhibition at 10 µM (BLK) was 89% and the inhibition at 10 µM (ALK F1174L) was 56%. It also gave an inhibition at 10 µM (MAPK8 (JNK1) [2]) of 81%, an inhibition at 10 µM (ABL1 M351T) of 52% and an inhibition at 10 µM (FGFR3) of 97%. The inhibition at 10 µM (LYN B) was 94%, the inhibition at 10 µM (LRRK2 G2019S FL) was 100% and the inhibition at 10 µM (MAPK8 (JNK1) [3]) was 96%. The inhibition at 10 µM (CAMKK2 (CaMKK beta)) was 86%, the inhibition at 10 µM (KIT V559D V654A) was 77% and the inhibition at 10 µM (FGFR4) was 70%. For the same compound, the inhibition at 10 µM [4] was 4%, the “% Inhibition 2D6 EOMCC” value (CYP2D6) was 1% and the inhibition at 10 µM (ALK T1151_L1152insT) was 26%. The “% Inhibition 2C8 DBOMF” value (P450 2C8) was 33% and the inhibition at 10 µM (PIK3C2B (PI3K-C2 beta)) was 9%.
